According to ChEMBL document CHEMBL3580659, “One-pot multicomponent synthesis of indole incorporated thiazolylcoumarins and their antibacterial, anticancer and DNA cleavage studies” (2015):

Tests used:
Type in all cases: functional
[1] = test system: NCI-H460; experiment: Cytotoxicity against human NCI-H460 cells after 48 hrs by sulforhodamine B assay; conditions: NCI-H460, 48 h
[2] = test system: PC-3; experiment: Cytotoxicity against human PC3 cells assessed as cell growth level at 100 nM after 48 hrs by sulforhodamine B assay
[3] = test system: OVCAR-3; experiment: Cytotoxicity against human OVCAR3 cells assessed as cell growth level at 10 uM after 48 hrs by sulforhodamine B assay
[4] = test system: Bacillus subtilis; experiment: Antibacterial activity against Bacillus subtilis assessed as bacterial growth inhibition at 50 ug/ml after 24 hrs by cup-plate agar diffusion method; conditions: read-out: IZ
[5] = test system: A549; experiment: Cytotoxicity against human A549/ATCC cells assessed as cell growth level at 100 nM after 48 hrs by sulforhodamine B assay
[6] = test system: KM12; experiment: Cytotoxicity against human KM12 cells assessed as cell growth level at 1 uM after 48 hrs by sulforhodamine B assay
[7] = test system: HCT-116; experiment: Cytotoxicity against human HCT116 cells assessed as cell growth level at 10 nM after 48 hrs by sulforhodamine B assay
[8] = test system: M14; experiment: Cytotoxicity against human M14 cells assessed as cell growth level at 10 nM after 48 hrs by sulforhodamine B assay
[9] = test system: RPMI-8226; experiment: Cytotoxicity against human RPMI8226 cells after 48 hrs by sulforhodamine B assay; conditions: RPMI-8226, 48 h
[10] = test system: M14; experiment: Cytotoxicity against human M14 cells assessed as cell growth level at 100 uM after 48 hrs by sulforhodamine B assay
[11] = test system: MOLT-4; experiment: Cytotoxicity against human MOLT4 cells assessed as cell growth level at 10 nM after 48 hrs by sulforhodamine B assay
[12] = test system: K562; experiment: Cytotoxicity against human K562 cells after 48 hrs by sulforhodamine B assay; conditions: K562, 48 h
[13] = test system: OVCAR-4; experiment: Cytotoxicity against human OVCAR4 cells assessed as cell growth level at 100 nM after 48 hrs by sulforhodamine B assay
[14] = test system: A549; experiment: Cytotoxicity against human A549/ATCC cells after 48 hrs by sulforhodamine B assay; conditions: A549, 48 h
[15] = Cytotoxicity against human Hs 578T cells after 48 hrs by sulforhodamine B assay
[16] = test system: NCI-H522; experiment: Cytotoxicity against human NCI-H522 cells assessed as cell growth level at 10 uM after 48 hrs by sulforhodamine B assay
[17] = test system: SF-539; experiment: Cytotoxicity against human SF539 cells assessed as cell growth level at 1 uM after 48 hrs by sulforhodamine B assay
[18] = test system: IGROV-1; experiment: Cytotoxicity against human IGROV1 cells after 48 hrs by sulforhodamine B assay; conditions: IGROV-1, 48 h
[19] = test system: HOP-92; experiment: Cytotoxicity against human HOP92 cells assessed as cell growth level at 10 uM after 48 hrs by sulforhodamine B assay
[20] = test system: A498; experiment: Cytotoxicity against human A498 cells assessed as cell growth level at 100 uM after 48 hrs by sulforhodamine B assay
[21] = test system: NCI-H322M; experiment: Cytotoxicity against human NCI-H322M cells assessed as cell growth level at 100 uM after 48 hrs by sulforhodamine B assay
[22] = test system: Malme-3M; experiment: Cytotoxicity against human MALME-3M cells assessed as cell growth level at 100 nM after 48 hrs by sulforhodamine B assay
[23] = test system: A498; experiment: Cytotoxicity against human A498 cells assessed as cell growth level at 10 nM after 48 hrs by sulforhodamine B assay
[24] = test system: HCC 2998; experiment: Cytotoxicity against human HCC2998 cells assessed as cell growth level at 10 nM after 48 hrs by sulforhodamine B assay
[25] = test system: SK-OV-3; experiment: Cytotoxicity against human SKOV3 cells assessed as cell growth level at 1 uM after 48 hrs by sulforhodamine B assay
[26] = test system: KM12; experiment: Cytotoxicity against human KM12 cells assessed as cell growth level at 10 nM after 48 hrs by sulforhodamine B assay
[27] = test system: HL-60(TB); experiment: Cytotoxicity against human HL-60(TB) cells assessed as cell growth level at 10 uM after 48 hrs by sulforhodamine B assay
[28] = test system: OVCAR-3; experiment: Cytotoxicity against human OVCAR3 cells assessed as cell growth level at 100 nM after 48 hrs by sulforhodamine B assay
[29] = test system: OVCAR-3; experiment: Cytotoxicity against human OVCAR3 cells assessed as cell growth level at 1 uM after 48 hrs by sulforhodamine B assay
[30] = test system: NCI-H226; experiment: Cytotoxicity against human NCI-H226 cells assessed as cell growth level at 10 uM after 48 hrs by sulforhodamine B assay
[31] = test system: UACC-257; experiment: Cytotoxicity against human UACC257 cells assessed as cell growth level at 10 nM after 48 hrs by sulforhodamine B assay
[32] = test system: SF-295; experiment: Cytotoxicity against human SF295 cells after 48 hrs by sulforhodamine B assay; conditions: SF-295, 48 h
[33] = test system: MDA-MB-231; experiment: Cytotoxicity against human MDA-MB-231/ATCC cells assessed as cell growth level at 1 uM after 48 hrs by sulforhodamine B assay
[34] = test system: NCI-H322M; experiment: Cytotoxicity against human NCI-H322M cells after 48 hrs by sulforhodamine B assay
[35] = test system: T47D; experiment: Cytotoxicity against human T47D cells assessed as cell growth level at 10 uM after 48 hrs by sulforhodamine B assay
[36] = read-out: LC50 (the source's name)
[37] = read-out: pLC50 (the source's name) (converted)

O=c1oc2ccccc2cc1-c1csc(N/N=C/c2c[nH]c3ccccc23)n1
GI50 ([1]; read-out: GI50): 2.84 µM
LC50 ([1]; read-out: LC50): > 100 µM
TGI ([1]; read-out: TGI): 9.69 µM
GI50 ([1]; read-out: pGI50 (converted)): 2.82 µM
LC50 ([1]; read-out: pLC50 (converted)): > 100 µM
TGI ([1]; read-out: pTGI (converted)): 9.77 µM
Activity [2]: 102%
Activity [3]: -80.31%
zone of inhibition at 50 µg/mL [4]: 18 mm
Activity [5]: 92%
Activity [6]: 95%
Activity [7]: 92%
Activity [8]: 97%
GI50 ([9]; read-out: GI50): 0.9 µM
CC50 [9, 36]: > 100 µM
TGI ([9]; read-out: TGI): 4.79 µM
GI50 ([9]; read-out: pGI50 (converted)): 0.912 µM
CC50 [9, 37]: > 100 µM
TGI ([9]; read-out: pTGI (converted)): 4.79 µM
Activity [10]: -77%
Activity [11]: 92%
GI50 ([12]; read-out: GI50): 3.18 µM
LC50 ([12]; read-out: LC50): > 100 µM
TGI ([12]; read-out: TGI): 10.4 µM
GI50 ([12]; read-out: pGI50 (converted)): 3.16 µM
LC50 ([12]; read-out: pLC50 (converted)): > 100 µM
TGI ([12]; read-out: pTGI (converted)): 10.5 µM
Activity [13]: 91%
GI50 ([14]; read-out: GI50): 1.54 µM
CC50 [14, 36]: > 100 µM
TGI ([14]; read-out: TGI): 5.3 µM
GI50 ([14]; read-out: pGI50 (converted)): 1.55 µM
CC50 [14, 37]: > 100 µM
TGI ([14]; read-out: pTGI): 5.25 µM
GI50 ([15]; read-out: GI50): 3.2 µM
CC50 [15, 36]: > 100 µM
TGI ([15]; read-out: TGI): 58.9 µM
GI50 ([15]; read-out: pGI50 (converted)): 3.16 µM
CC50 [15, 37]: > 100 µM
TGI ([15]; read-out: pTGI (converted)): 58.9 µM
Activity [16]: -77.8%
Activity [17]: 87%
GI50 ([18]; read-out: GI50): 1.54 µM
CC50 [18, 36]: > 100 µM
TGI ([18]; read-out: TGI): 4.7 µM
GI50 ([18]; read-out: pGI50 (converted)): 1.55 µM
CC50 [18, 37]: > 100 µM
TGI ([18]; read-out: pTGI (converted)): 4.68 µM
Activity [19]: -14.45%
Activity [20]: -53%
Activity [21]: -10%
Activity [22]: 94%
Activity [23]: 95%
Activity [24]: 99%
Activity [25]: 64%
Activity [26]: 99%
Activity [27]: -28.24%
Activity [28]: 90%
Activity [29]: 61%
Activity [30]: 42.82%
Activity [31]: 96%
GI50 ([32]; read-out: GI50): 2.23 µM
CC50 [32, 36]: > 100 µM
TGI ([32]; read-out: TGI): 6.76 µM
GI50 ([32]; read-out: pGI50 (converted)): 2.24 µM
CC50 [32, 37]: > 100 µM
TGI ([32]; read-out: pTGI (converted)): 6.76 µM
Activity [33]: 92%
GI50 ([34]; read-out: GI50): 3.16 µM
LC50 (concentration killing 50% of cells) ([34]; read-out: LC50): > 100 µM
TGI ([34]; read-out: TGI): 32.2 µM
GI50 ([34]; read-out: pGI50 (converted)): 3.16 µM
LC50 (concentration killing 50% of cells) ([34]; read-out: pLC50 (converted)): > 100 µM
TGI ([34]; read-out: pTGI (converted)): 32.4 µM
Activity [35]: 4.07%
